Test results taken from patent US20250034216A1, “STEREOSELECTIVE COVALENT LIGANDS FOR ONCOGENIC AND IMMUNOLOGICAL PROTEINS” (The Scripps Research Institute, priority 2021, published 2025).

Assays:
Assay in all cases: IA-DTB cysteine engagement
Type in all cases: binding
Details in all cases: 22Rv1 cells, 20 μM probe, 1 h, relative to DMSO
[1] = molecular target: T1, RAB39B_C23 (Homo sapiens, UniProt Q96DA2)
T1 construct: endogenous in cells; host or cells: 22Rv1
T1 sequence (Q96DA2 1-213): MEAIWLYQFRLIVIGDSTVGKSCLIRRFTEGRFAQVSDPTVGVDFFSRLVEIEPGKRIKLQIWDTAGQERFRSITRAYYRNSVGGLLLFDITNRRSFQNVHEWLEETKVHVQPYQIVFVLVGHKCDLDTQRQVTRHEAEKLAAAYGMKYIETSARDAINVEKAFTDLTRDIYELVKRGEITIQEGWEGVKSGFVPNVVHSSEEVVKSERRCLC
Procedure, shortened: (§1)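 Probe-exposed cells were lysed, IA-DTB-labeled, trypsinized and streptavidin-enriched. Multiplexed TMT quantitation gave engagement ratios versus DMSO, with non-tryptic peptides excluded and intensities normalized to median summed signal.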

[2] = molecular target: T2, TMEM50A_C13 (Homo sapiens, UniProt O95807)
T2 construct: endogenous in cells; host or cells: 22Rv1
T2 sequence (O95807 whole entry): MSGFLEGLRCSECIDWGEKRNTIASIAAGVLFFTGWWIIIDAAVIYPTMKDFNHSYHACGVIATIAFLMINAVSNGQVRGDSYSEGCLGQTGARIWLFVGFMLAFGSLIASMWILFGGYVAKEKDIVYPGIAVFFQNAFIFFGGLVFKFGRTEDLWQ
Procedure, shortened: as §1

[3] = molecular target: T3, ZFAT_C392 (Homo sapiens, UniProt Q9P243)
T3 construct: endogenous in cells; host or cells: 22Rv1
T3 sequence (Q9P243 1-1243): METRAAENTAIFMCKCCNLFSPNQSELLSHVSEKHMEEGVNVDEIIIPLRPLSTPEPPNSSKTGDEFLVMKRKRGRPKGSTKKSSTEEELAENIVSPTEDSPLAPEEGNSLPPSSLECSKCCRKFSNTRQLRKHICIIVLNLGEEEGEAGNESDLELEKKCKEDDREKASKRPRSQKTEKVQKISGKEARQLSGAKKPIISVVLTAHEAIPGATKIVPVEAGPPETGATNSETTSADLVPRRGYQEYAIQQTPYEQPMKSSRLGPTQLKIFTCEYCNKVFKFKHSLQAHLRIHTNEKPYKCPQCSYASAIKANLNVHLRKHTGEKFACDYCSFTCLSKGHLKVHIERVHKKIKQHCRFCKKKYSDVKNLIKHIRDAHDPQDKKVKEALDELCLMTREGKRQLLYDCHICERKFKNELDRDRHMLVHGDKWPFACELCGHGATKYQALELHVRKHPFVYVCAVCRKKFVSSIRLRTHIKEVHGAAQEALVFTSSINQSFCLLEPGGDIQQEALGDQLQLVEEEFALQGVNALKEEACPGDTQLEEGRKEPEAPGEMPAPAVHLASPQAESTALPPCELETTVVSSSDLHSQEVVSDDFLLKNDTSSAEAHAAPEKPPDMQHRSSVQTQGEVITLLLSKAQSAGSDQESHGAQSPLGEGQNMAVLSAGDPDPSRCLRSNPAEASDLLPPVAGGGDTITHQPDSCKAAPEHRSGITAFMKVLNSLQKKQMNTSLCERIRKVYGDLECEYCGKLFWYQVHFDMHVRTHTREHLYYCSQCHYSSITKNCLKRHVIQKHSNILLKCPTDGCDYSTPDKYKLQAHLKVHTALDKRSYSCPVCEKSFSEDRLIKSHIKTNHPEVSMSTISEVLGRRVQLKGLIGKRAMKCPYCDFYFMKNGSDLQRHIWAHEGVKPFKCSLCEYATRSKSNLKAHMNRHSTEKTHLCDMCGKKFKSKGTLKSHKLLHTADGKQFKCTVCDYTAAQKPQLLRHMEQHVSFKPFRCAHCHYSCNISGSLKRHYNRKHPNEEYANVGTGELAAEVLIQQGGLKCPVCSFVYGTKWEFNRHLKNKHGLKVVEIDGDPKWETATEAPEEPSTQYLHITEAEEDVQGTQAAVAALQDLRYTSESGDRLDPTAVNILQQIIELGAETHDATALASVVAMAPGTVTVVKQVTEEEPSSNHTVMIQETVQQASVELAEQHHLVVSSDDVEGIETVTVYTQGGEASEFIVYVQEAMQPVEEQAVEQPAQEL
Procedure, shortened: as §1

% engagement RAB39B_C23 [1] [%] | % engagement TMEM50A_C13 [2] [%] | % engagement ZFAT_C392 [3] [%] | Structure (SMILES)
67 | 68.5 | 68.5 | C=CC(=O)N1C[C@H](c2ccc(Br)cc2)[C@H]1C(=O)Nc1cccc2cccnc12 [MY-3B, (2S,3S)-1-acryloyl-3-(4-bromophenyl)-N-(quinolin-8-yl)azetidine-2-carboxamide]
18.5 | 58 | 39 | C=CC(=O)N1C[C@H](c2ccc(Br)cc2)[C@@H]1C(=O)Nc1cccc2cccnc12 [MY-1B, (2R,3S)-1-acryloyl-3-(4-bromophenyl)-N-(quinolin-8-yl)azetidine-2-carboxamide]
−53 | 60.5 | 17.5 | C=CC(=O)N1C[C@H](c2ccc(Br)cc2)[C@H]1C(=O)Nc1cccc2cccnc12 [MY-3A, (2S,3S)-1-acryloyl-3-(4-bromophenyl)-N-(quinolin-8-yl)azetidine-2-carboxamide]
24.5 | 63.5 | 32.5 | C=CC(=O)N1C[C@@H](c2ccc(Br)cc2)[C@H]1C(=O)Nc1cccc2cccnc12 [MY-1A, (2S,3R)-1-acryloyl-3-(4-bromophenyl)-N-(quinolin-8-yl)azetidine-2-carboxamide]
